Assays:
ROCK2 kinase = molecular target: T1, ROCK2 kinase (Homo sapiens, UniProt O75116); experiment: In vitro evaluation of ROCK2 kinase activity (HTRF KinEASE-STK time-resolved fluorometric assay); type: biochemical; settings: ROCK2 kinase 0.4 ng/μL, ATP 6.739 μM
T1 construct: purchased Invitrogen PV3759
Procedure: ROCK2 activity screening. ROCK2 activity was detected using a 96-well (Cisbio) time-resolved fluorometric assay. The assay for ROCK2 was performed in the following assay buffer: 5 mM MgCl2 (Sigma), 1 mM DTT (Sigma) and 1× kinase buffer. The kinase buffer was used for dilution. 7.5 μL of ROCK2 kinase (Invitrogen, PV3759) was added to a 96-well microplate to reach a final concentration of 0.4 ng/μL, and then 0.25 μL of test compound (DMSO content: 1% (volume fraction)) was added. The mixture was incubated at room temperature for 0.5 h. To start the reaction, the kinase buffer was used to mix ATP (Aladdin) and the substrate STK-substrate 2-biotin. 7.5 μL of the mixed solution was added to the microplate to reach final concentrations of 6.739 μM and 1 μM. The resulting mixture was incubated at room temperature for 2 h. 5 mL of detection buffer was mixed with STK antibody-Cryptate, and then an appropriate volume of the mixture was mixed with an equal volume of streptavidin-XL665. 10 μL of the resulting mixture was added to the microplate to stop the reaction. After further incubation for about 1 h, the microplate was read on a Molecular Devices SpectraMax i3x multifunctional microplate reader. The kinase buffer, the STK-substrate 2-biotin, the detection buffer, the STK antibody-Cryptate, and the streptavidin-XL665 were all from HTRF KinEASE-STK kit (Cisbio, 1000 tests, 61GSTXLA).

ROCK1 kinase = molecular target: T2, ROCK1 kinase (Homo sapiens, UniProt Q13464); experiment: In vitro evaluation of ROCK1 kinase selectivity (HTRF KinEASE-STK time-resolved fluorometric assay); type: biochemical; settings: ROCK1 kinase 0.4 ng/μL, ATP 3.53 μM
T2 construct: purchased Invitrogen
Procedure: ROCK1 activity was detected using a 96-well (Cisbio) time-resolved fluorometric assay. The assay for ROCK1 was performed in the following assay buffer: 5 mM MgCl2 (Sigma), 1 mM DTT (Sigma) and 1× kinase buffer. The kinase buffer was used for dilution. 7.5 μL of ROCK1 kinase (Invitrogen) was added to a 96-well microplate to reach a final concentration of 0.4 ng/μL, and then 0.25 μL of test compound (DMSO content: 1%) was added. The mixture was incubated at room temperature for 0.5 h. To start the reaction, the kinase buffer was also used to mix ATP (Aladdin) and the substrate STK-substrate 2-biotin. 7.5 μL of the mixed solution was added to the microplate to reach final concentrations of 3.53 μM and 1 μM. The resulting mixture was incubated at room temperature for 2 h. 5 mL of detection buffer was mixed with STK antibody-Cryptate, and then an appropriate volume of the mixture was mixed with an equal volume of streptavidin-XL665. 10 μL of the resulting mixture was added to stop the reaction. After further incubation for about 1 h, the microplate was read on a Molecular Devices SpectraMax i3x multifunctional microplate reader. The kinase buffer, the STK-substrate 2-biotin, the detection buffer, the STK antibody-Cryptate, and the streptavidin-XL665 were all from HTRF KinEASE-STK kit (Cisbio, 1000 tests, 61GSTXLA).

[1] = In vitro cytotoxicity assay in HepG2 cells using the CCK-8 method; type: cell-based; settings: human
Procedure: In vitro cytotoxicity assay for the compounds disclosed herein was performed in HepG2 cells using the CCK-8 method. HepG2 cells (Beina Bio) in the logarithmic growth phase were collected, the concentration of cell suspension was adjusted, and then the cells were plated on a 96-well cell culture plate at 50,000 cells/well. The cells were then incubated overnight in a cell incubator (5%, 37° C.), and after 80-90% cell confluence was achieved, test compound at each concentration gradient or vehicle (DMSO) was added after medium change. The resulting mixture was incubated in the cell incubator (5%, 37° C.) for 48 h. After the treatment, the medium in the plate was discarded. The plate was washed twice with PBS, added with CCK-8 working solution (Beyotime) at 100 μL per well, and then incubated at 37° C. for 1.5 h in the dark. Absorbance at OD450 nm mil was measured for each well on a microplate reader, and CC50 value of each compound was analyzed and calculated.

[2] = In vitro metabolic stability, human liver microsome incubation; type: in vitro ADME; settings: liver microsomes, 1 mg/mL protein, 37° C., read-out: T1/2 in human liver microsome
Procedure: (§1) The in vitro metabolic stability of the compounds disclosed herein was determined through incubation of liver microsomes of various species. A proper amount of test compound was added into a liver microsome reaction system (1 mg/mL liver microsome protein, 25 U/mL glucose-6 phosphate dehydrogenase, 1 mM NADP, 6 mM D-glucose 6-phosphate and 5 mM MgCl2), and then the mixture was incubated in a water bath kettle at 37° C. to start reaction. At each time point, 100 μL of the reaction liquid was added into a centrifuge tube containing 400 μL of internal standard working solution (containing a 200 ng/mL solution of dexamethasone, diclofenac, tolbutamide and labetalol in acetonitrile) precooled at 0° C. so as to stop the reaction, and the mixture was then centrifuged at 10,000 g for 10 min at 4° C. The supernatant was collected for LC-MS assay so as to obtain the values of in vitro metabolic half-life of the test compounds in liver microsomes of various species.

[3] = In vitro metabolic stability, rat liver microsome incubation; type: in vitro ADME; settings: liver microsomes, 1 mg/mL protein, 37° C., read-out: T1/2 in rat liver microsome
Procedure: as §1

[4] = In vitro metabolic stability, guinea pig liver microsome incubation; type: in vitro ADME; settings: liver microsomes, 1 mg/mL protein, 37° C., read-out: T1/2 in guinea pig liver microsome
Procedure: as §1

T2 sequence (Q13464 whole entry): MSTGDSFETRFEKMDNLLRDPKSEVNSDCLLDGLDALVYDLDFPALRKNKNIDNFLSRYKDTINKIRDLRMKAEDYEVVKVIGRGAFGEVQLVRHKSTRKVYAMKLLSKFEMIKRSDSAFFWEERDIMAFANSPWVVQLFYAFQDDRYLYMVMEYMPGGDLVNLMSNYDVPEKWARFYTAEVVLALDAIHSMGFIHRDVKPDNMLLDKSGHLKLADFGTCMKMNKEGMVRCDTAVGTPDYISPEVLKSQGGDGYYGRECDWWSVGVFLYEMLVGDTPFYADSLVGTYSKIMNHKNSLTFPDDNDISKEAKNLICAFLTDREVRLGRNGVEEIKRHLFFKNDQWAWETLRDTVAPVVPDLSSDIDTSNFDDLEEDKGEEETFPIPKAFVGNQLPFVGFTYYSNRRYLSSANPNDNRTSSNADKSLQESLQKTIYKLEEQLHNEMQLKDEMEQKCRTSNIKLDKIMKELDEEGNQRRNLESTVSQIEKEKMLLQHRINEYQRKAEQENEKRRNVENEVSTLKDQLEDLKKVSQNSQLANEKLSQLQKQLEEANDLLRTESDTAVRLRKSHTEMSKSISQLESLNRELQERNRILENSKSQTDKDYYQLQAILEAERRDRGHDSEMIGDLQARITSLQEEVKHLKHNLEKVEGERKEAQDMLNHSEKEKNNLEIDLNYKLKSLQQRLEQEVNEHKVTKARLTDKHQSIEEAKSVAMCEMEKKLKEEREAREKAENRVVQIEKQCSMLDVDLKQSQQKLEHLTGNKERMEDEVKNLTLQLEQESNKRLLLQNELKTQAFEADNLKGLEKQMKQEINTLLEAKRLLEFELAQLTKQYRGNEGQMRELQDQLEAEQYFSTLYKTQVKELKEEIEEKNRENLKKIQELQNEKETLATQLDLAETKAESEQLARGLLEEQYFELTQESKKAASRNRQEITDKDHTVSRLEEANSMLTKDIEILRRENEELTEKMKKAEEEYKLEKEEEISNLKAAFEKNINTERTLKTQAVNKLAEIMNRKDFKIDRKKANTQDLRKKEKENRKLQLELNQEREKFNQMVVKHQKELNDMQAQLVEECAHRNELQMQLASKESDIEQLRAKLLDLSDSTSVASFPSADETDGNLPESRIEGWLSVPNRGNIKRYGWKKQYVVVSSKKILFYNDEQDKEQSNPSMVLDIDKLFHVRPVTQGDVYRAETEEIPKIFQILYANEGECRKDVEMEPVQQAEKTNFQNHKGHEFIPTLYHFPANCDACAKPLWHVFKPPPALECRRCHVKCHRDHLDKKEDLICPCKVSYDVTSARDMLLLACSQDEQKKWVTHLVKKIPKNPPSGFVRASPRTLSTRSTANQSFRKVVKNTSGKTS
T1 sequence (O75116 whole entry): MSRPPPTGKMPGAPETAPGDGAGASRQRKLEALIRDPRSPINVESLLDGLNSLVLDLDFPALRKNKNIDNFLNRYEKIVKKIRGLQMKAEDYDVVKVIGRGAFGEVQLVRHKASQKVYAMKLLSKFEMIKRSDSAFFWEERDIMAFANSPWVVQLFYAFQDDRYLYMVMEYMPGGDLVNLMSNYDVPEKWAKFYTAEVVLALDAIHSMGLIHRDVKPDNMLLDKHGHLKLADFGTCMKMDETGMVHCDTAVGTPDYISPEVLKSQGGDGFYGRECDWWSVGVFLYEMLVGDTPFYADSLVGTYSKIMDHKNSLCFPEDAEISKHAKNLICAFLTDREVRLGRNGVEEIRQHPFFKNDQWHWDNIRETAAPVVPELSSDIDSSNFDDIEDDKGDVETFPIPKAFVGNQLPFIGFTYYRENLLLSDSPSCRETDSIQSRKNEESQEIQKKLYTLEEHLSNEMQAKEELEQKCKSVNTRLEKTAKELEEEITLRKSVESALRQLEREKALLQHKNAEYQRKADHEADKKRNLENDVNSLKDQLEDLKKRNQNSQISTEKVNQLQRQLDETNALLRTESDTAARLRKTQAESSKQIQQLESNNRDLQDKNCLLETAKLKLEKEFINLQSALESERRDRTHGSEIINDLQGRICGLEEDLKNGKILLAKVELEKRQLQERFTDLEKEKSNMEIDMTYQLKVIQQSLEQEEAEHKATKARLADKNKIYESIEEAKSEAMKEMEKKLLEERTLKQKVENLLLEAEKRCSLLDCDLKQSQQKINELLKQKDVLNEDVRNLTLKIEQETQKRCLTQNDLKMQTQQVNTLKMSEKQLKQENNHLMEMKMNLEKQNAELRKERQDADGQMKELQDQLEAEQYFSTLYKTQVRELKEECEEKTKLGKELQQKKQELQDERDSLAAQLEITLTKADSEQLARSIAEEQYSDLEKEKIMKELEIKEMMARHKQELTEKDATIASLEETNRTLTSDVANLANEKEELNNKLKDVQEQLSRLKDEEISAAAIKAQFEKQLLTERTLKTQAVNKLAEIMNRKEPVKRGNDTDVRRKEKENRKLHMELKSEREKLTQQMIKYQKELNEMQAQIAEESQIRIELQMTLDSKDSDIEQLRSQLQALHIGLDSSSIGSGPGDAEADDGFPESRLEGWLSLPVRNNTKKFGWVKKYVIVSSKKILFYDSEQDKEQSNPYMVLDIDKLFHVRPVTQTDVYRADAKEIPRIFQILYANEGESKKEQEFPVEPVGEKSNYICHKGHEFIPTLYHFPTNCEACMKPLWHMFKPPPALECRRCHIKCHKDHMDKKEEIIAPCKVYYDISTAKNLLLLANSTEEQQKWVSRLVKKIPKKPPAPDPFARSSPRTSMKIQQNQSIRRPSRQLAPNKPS

| SMILES | IC50 (ROCK2 kinase) | IC50 (ROCK1 kinase) | half-life [2] | half-life [3] | half-life [4] | CC50 at 48 h [1] |
| --- | --- | --- | --- | --- | --- | --- |
| COc1cnc(N2CCc3cc(C(=O)N4CC(F)(F)C4)n(C)c3C2)nc1Nc1ccc(-c2cn[nH]c2)cc1 [Compound L026, (6-(4-((4-(1H-pyrazol-4-yl)phenyl)amino)-5-methoxypyrimidin-2-yl)-1-methyl-4,5,6,7-tetrahydro-1H-pyrrolo[2,3-c]pyridin-2-yl)(3,3-difluoroazetidin-1-yl)methanone] | ≤ 0.05 µM | > 4.5 µM | 3.95 h | 1.02 h | 0.473 h | > 100 µM |
| Cn1c(C(=O)N2CC(F)(F)C2)cc2c1CN(c1nc3c(c(Nc4ccc(-c5cn[nH]c5)cc4)n1)COCC3)CC2 [Compound L031] | ≤ 0.05 µM | > 4.5 µM |  |  |  | 33.4 µM |
| Cn1c(C(=O)N2CC(F)(F)C2)cc2c1CN(c1ncc(C(F)(F)F)c(Nc3ccc(-c4cn[nH]c4)cc3)n1)CC2 [Compound L035, (6-(4-((4-(1H-pyrazol-4-yl)phenyl)amino)-5-(trifluoromethyl)pyrimidin-2-yl)-1-methyl-4,5,6,7-tetrahydro-1H-pyrrolo[2,3-c]pyridin-2-yl)(3,3-difluoroazetidin-1-yl)methanone] | 0.05 to 0.5 µM | > 4.5 µM |  |  |  |  |
| Cn1c(C(=O)N2CC(F)(F)C2)cc2c1CN(c1ncc(Cl)c(Nc3ccc(-c4c[nH]nc4F)cc3)n1)CC2 [Compound L038, (6-(5-chloro-4-((4-(3-fluoro-1H-pyrazol-4-yl)phenyl)amino)pyrimidin-2-yl)-1-methyl-4,5,6,7-tetrahydro-1H-pyrrolo[2,3-c]pyridin-2-yl)(3,3-difluoroazetidin-1-yl)methanone] | 0.05 to 0.5 µM | > 4.5 µM |  |  |  |  |
| Cn1c(C(=O)N2CC(C(F)F)C2)cc2c1CN(c1ncc(F)c(Nc3ccc(-c4c[nH]nc4F)cc3)n1)CC2 [Compound L039, (3-(difluoromethyl)azetidin-1-yl)(6-(5-fluoro-4-((4-(3-fluoro-1H-pyrazol-4-yl)phenyl)amino)pyrimidin-2-yl)-1-methyl-4,5,6,7-tetrahydro-1H-pyrrolo[2,3-c]pyridin-2-yl)methanone] | 0.05 to 0.5 µM | > 4.5 µM |  |  |  |  |
| Cn1c(C(=O)N2CC(F)(F)C2)cc2c1CN(c1nc(Nc3ccc(-c4cn[nH]c4)cc3)cc(C(F)(F)F)n1)CC2 [Compound L041, (6-(4-((4-(1H-pyrazol-4-yl)phenyl)amino)-6-(trifluoromethyl)pyrimidin-2-yl)-1-methyl-4,5,6,7-tetrahydro-1H-pyrrolo[2,3-c]pyridin-2-yl)(3,3-difluoroazetidin-1-yl)methanone] | 0.05 to 0.5 µM | > 4.5 µM |  |  |  |  |
| COc1nnc(N2CCc3cc(C(=O)N4CC(F)(F)C4)n(C)c3C2)nc1Nc1ccc(-c2cn[nH]c2)cc1 [Compound L043, (6-(5-((4-(1H-pyrazol-4-yl)phenyl)amino)-6-methoxy-1,2,4-triazin-3-yl)-1-methyl-4,5,6,7-tetrahydro-1H-pyrrolo[2,3-c]pyridin-2-yl)(3,3-difluoroazetidin-1-yl)methanone] | 0.05 to 0.5 µM |  | 1.87 h | 1.34 h | 1.42 h | > 100 µM |
| O=C(c1cc2c(n1C(F)F)CN(c1ncnc(Nc3ccc(-c4cn[nH]c4)cc3)n1)CC2)N1CC(F)(F)C1 [Compound L045, (6-(4-((4-(1H-pyrazol-4-yl)phenyl)amino)-1,3,5-triazin-2-yl)-1-(difluoromethyl)-4,5,6,7-tetrahydro-1H-pyrrolo[2,3-c]pyridin-2-yl)(3,3-difluoroazetidin-1-yl)methanone] | > 4.5 µM | > 4.5 µM |  |  |  | > 100 µM |
| Cn1c(C(=O)N2CC(F)(F)C2)cc2c1CN(c1nnc(Nc3ccc(-c4cn[nH]c4)cc3)o1)CC2 [Compound L046, (6-(5-((4-(1H-pyrazol-4-yl)phenyl)amino)-1,3,4-oxadiazol-2-yl)-1-methyl-4,5,6,7-tetrahydro-1H-pyrrolo[2,3-c]pyridin-2-yl)(3,3-difluoroazetidin-1-yl)methanone] | > 4.5 µM | > 4.5 µM |  |  |  |  |
| O=C(c1cc2c(n1C(F)F)CN(c1ncc(F)c(Nc3ccc(-c4cn[nH]c4)cc3)n1)CC2)N1CC(F)(F)C1 [Compound L047, (6-(4-((4-(1H-pyrazol-4-yl)phenyl)amino)-5-fluoropyrimidin-2-yl)-1-(difluoromethyl)-4,5,6,7-tetrahydro-1H-pyrrolo[2,3-c]pyridin-2-yl)(3,3-difluoroazetidin-1-yl)methanone] | > 4.5 µM | > 4.5 µM |  |  |  | > 100 µM |
| CCc1nc(Nc2ccc(-c3cn[nH]c3)cc2)nc(N2CCc3cc(C(=O)N4CC(F)(F)C4)n(C)c3C2)n1 [Compound L048, (6-(4-((4-(1H-pyrazol-4-yl)phenyl)amino)-6-ethyl-1,3,5-triazin-2-yl)-1-methyl-4,5,6,7-tetrahydro-1H-pyrrolo[2,3-c]pyridin-2-yl)(3,3-difluoroazetidin-1-yl)methanone] | 0.5 to 4.5 µM | > 4.5 µM |  |  |  | 100 µM |

Continued, in another order:

| IC50 (ROCK2 kinase) | IC50 (ROCK1 kinase) | half-life [2] | half-life [3] | half-life [4] | SMILES | CC50 at 48 h [1] |
| --- | --- | --- | --- | --- | --- | --- |
| 0.05 to 0.5 µM | > 4.5 µM |  |  |  | CC(C)c1nc(Nc2ccc(-c3cn[nH]c3)cc2)nc(N2CCc3cc(C(=O)N4CC(F)(F)C4)n(C)c3C2)n1 [Compound L049] |  |
| 0.05 to 0.5 µM | > 4.5 µM |  |  |  | Cn1c(C(=O)N2CC(F)(F)C2)cc2c1CN(c1nc(Nc3ccc(-c4cn[nH]c4)cc3)nc(C3COC3)n1)CC2 [Compound L052, (6-(4-((4-(1H-pyrazol-4-yl)phenyl)amino)-6-(oxetan-3-yl)-1,3,5-triazin-2-yl)-1-methyl-4,5,6,7-tetrahydro-1H-pyrrolo[2,3-c]pyridin-2-yl)(3,3-difluoroazetidin-1-yl)methanone] |  |
| 0.05 to 0.5 µM | > 4.5 µM |  |  |  | Cn1c(C(=O)N2CC(F)(F)C2)cc2c1CN(c1nc3c(c(Nc4ccc(-c5cn[nH]c5)cc4)n1)CCC3)CC2 [Compound L053, (6-(4-((4-(1H-pyrazol-4-yl)phenyl)amino)-6,7-dihydro-5H-cyclopenta[d]pyrimidin-2-yl)-1-methyl-4,5,6,7-tetrahydro-1H-pyrrolo[2,3-c]pyridin-2-yl)(3,3-difluoroazetidin-1-yl)methanone] |  |
| 0.5 to 4.5 µM | > 4.5 µM |  |  |  | O=C(c1ccc2c(cnn2-c2nccc(Nc3ccc(-c4cn[nH]c4)cc3)n2)c1)N1CC(F)(F)C1 [Compound L055] |  |
|  |  | 1.52 h | 0.287 h | 1.61 h | CC(C)NC(=O)COc1cccc(-c2nc(Nc3ccc4[nH]ncc4c3)c3ccccc3n2)c1 [KD-025, reference compound] |  |

From patent US20230257376A1, “ROCK INHIBITOR, AND PREPARATION METHOD THEREFOR AND USE THEREOF” (WUHAN LL SCIENCE AND TECHNOLOGY DEVELOPMENT CO., LTD., priority 2020, published 2023)
